Data reported in US20060128792A1, “Deguelin as a chemopreventive agent for lung cancer” (priority 2002, published 2006).
Values joined by “and” are separate entries in the source; they are usually repeats but may differ in a detail not shown here. Equal entries are not always repeated.

How the values were obtained:
Type in all cases: cell-based
H1299 = assay: MTT assay, growth inhibition by deguelin or deguelin derivatives; conditions: 3 days
H460 = assay: as above; conditions: 3 days
H358 = assay: as above; conditions: 3 days
A549 = assay: as above; conditions: 3 days
H322 = assay: as above; conditions: 3 days
NSCLC cells = assay: MTT assay, growth inhibition of NSCLC cells by deguelin and deguelin derivatives (Table 2, FIG. 7); conditions: 0.01-1 μM, 3 days
H596 = assay: MTT assay, growth inhibition by deguelin or deguelin derivatives; conditions: 3 days

COc1cc2c(cc1OC)[C@]1(O)C(=O)c3ccc4c(c3O[C@@H]1CO2)C=CC(C)(C)O4 [tephrosin]
MTT assay reading, Average (H1299; H1299, 0.01 μM): 0.4143
MTT assay reading, individual replicate (H1299; H1299, 0.01 μM): 0.38 and 0.248 and 0.428 and 0.399 and 0.471 and 0.527 and 0.447
MTT assay reading, Average (H1299; H1299, 0.1 μM): 0.7746
MTT assay reading, individual replicate (H1299; H1299, 0.1 μM): 0.795 and 0.806 and 0.783 and 0.784 and 0.956 and 0.491 and 0.807
MTT assay reading, Average (H1299; H1299, 0.5 μM): 0.1507
MTT assay reading, individual replicate (H1299; H1299, 0.5 μM): 0.135 and 0.147 and 0.166 and 0.204 and 0.179 and 0.097 and 0.127
MTT assay reading, Average (H1299; H1299, 1 μM): 0.2739
MTT assay reading, individual replicate (H1299; H1299, 1 μM): 0.261 and 0.279 and 0.255 and 0.26 and 0.36 and 0.183 and 0.319
% control (H460; H460, 0.01 μM): 0.05%
MTT assay reading, Average (H460; H460, 0.01 μM): 0.0956
MTT assay reading, individual replicate (H460; H460, 0.01 μM): 0.072 and 0.051 and 0.097 and 0.1 and 0.105 and 0.132 and 0.112
% control (H460; H460, 0.1 μM): 0.05%
MTT assay reading, Average (H460; H460, 0.1 μM): 0.0816
MTT assay reading, individual replicate (H460; H460, 0.1 μM): 0.072 and 0.067 and 0.086 (2×) and 0.112 and 0.056 and 0.092
% control (H460; H460, 0.5 μM): 0.08%
MTT assay reading, Average (H460; H460, 0.5 μM): 0.141
MTT assay reading, individual replicate (H460; H460, 0.5 μM): 0.088 and 0.113 (2×) and 0.159 and 0.16 and 0.19 and 0.164
% control (H460; H460, 1 μM): 0.10%
MTT assay reading, Average (H460; H460, 1 μM): 0.1819
MTT assay reading, individual replicate (H460; H460, 1 μM): 0.162 and 0.184 and 0.154 and 0.272 and 0.183 and 0.133 and 0.185
MTT assay reading, Average (H358; H358, 0.01 μM): 0.6206
MTT assay reading, individual replicate (H358; H358, 0.01 μM): 0.508 and 0.601 and 0.658 and 0.674 and 0.608 and 0.59 and 0.705
MTT assay reading, Average (H358; H358, 0.1 μM): 0.5327
MTT assay reading, individual replicate (H358; H358, 0.1 μM): 0.522 and 0.496 (2×) and 0.558 and 0.516 and 0.579 and 0.562
MTT assay reading, Average (H358; H358, 0.5 μM): 0.1047
MTT assay reading, individual replicate (H358; H358, 0.5 μM): 0.054 and 0.048 and 0.1 and 0.105 and 0.117 and 0.147 and 0.162
MTT assay reading, Average (H358; H358, 1 μM): 0.2634
MTT assay reading, individual replicate (H358; H358, 1 μM): 0.245 and 0.233 and 0.332 and 0.139 and 0.234 and 0.293 and 0.368
% control (A549; A549, 0.01 μM): 0.16%
MTT assay reading, Average (A549; A549, 0.01 μM): 0.2403
MTT assay reading, individual replicate (A549; A549, 0.01 μM): 0.274 and 0.196 and 0.223 and 0.284 and 0.229 and 0.252 and 0.224
% control (A549; A549, 0.1 μM): 0.17%
MTT assay reading, Average (A549; A549, 0.1 μM): 0.248
MTT assay reading, individual replicate (A549; A549, 0.1 μM): 0.161 and 0.279 and 0.299 and 0.218 and 0.262 and 0.236 and 0.281
% control (A549; A549, 0.5 μM): 0.17%
MTT assay reading, Average (A549; A549, 0.5 μM): 0.255
MTT assay reading, individual replicate (A549; A549, 0.5 μM): 0.299 and 0.243 and 0.26 and 0.217 (2×) and 0.305 and 0.244
% control (A549; A549, 1 μM): 0.23%
MTT assay reading, Average (A549; A549, 1 μM): 0.3313
MTT assay reading, individual replicate (A549; A549, 1 μM): 0.434 and 0.15 and 0.366 and 0.295 and 0.386 and 0.341 and 0.347
MTT assay reading, Average (H322; H322, 0.01 μM): 0.6627
MTT assay reading, individual replicate (H322; H322, 0.01 μM): 0.527 and 0.596 and 0.713 and 0.655 and 0.68 and 0.721 and 0.747
MTT assay reading, Average (H322; H322, 0.1 μM): 0.7197
MTT assay reading, individual replicate (H322; H322, 0.1 μM): 0.685 and 0.659 and 0.726 and 0.643 and 0.732 and 0.795 and 0.798
MTT assay reading, Average (H322; H322, 0.5 μM): 0.1343
MTT assay reading, individual replicate (H322; H322, 0.5 μM): 0.113 and 0.109 (2×) and 0.12 and 0.117 and 0.162 and 0.21
MTT assay reading, Average (H322; H322, 1 μM): 0.2089
MTT assay reading, individual replicate (H322; H322, 1 μM): 0.223 and 0.216 (3×) and 0.182 and 0.168 and 0.241
inhibiting cell growth in NSCLC cells, ranking among the derivatives (NSCLC cells): most effective
MTT assay reading, Average (H596; H596, 0.01 μM): 0.1156
MTT assay reading, individual replicate (H596; H596, 0.01 μM): 0.062 and 0.127 and 0.078 and 0.138 (2×) and 0.103 and 0.163
MTT assay reading, Average (H596; H596, 0.1 μM): 0.0826
MTT assay reading, individual replicate (H596; H596, 0.1 μM): 0.082 and 0.062 and 0.066 and 0.095 and 0.09 and 0.058 and 0.125
MTT assay reading, Average (H596; H596, 0.5 μM): 0.1631
MTT assay reading, individual replicate (H596; H596, 0.5 μM): 0.137 and 0.159 and 0.151 and 0.111 and 0.158 and 0.076 and 0.35
MTT assay reading, Average (H596; H596, 1 μM): 0.1983
MTT assay reading, individual replicate (H596; H596, 1 μM): 0.287 and 0.257 and 0.172 and 0.151 and 0.215 and 0.131 and 0.175

methoxyrot-2′-enoic acid
% control (H1299; H1299, 0.01 μM): 0.48%
MTT assay reading, Average (H1299; H1299, 0.01 μM): 0.7507
MTT assay reading, individual replicate (H1299; H1299, 0.01 μM): 0.707 and 0.725 and 0.796 and 0.793 and 0.86 and 0.656 and 0.718
% control (H1299; H1299, 0.1 μM): 0.29%
MTT assay reading, Average (H1299; H1299, 0.1 μM): 0.4579
MTT assay reading, individual replicate (H1299; H1299, 0.1 μM): 0.401 and 0.474 and 0.434 and 0.387 and 0.526 and 0.465 and 0.518
% control (H1299; H1299, 0.5 μM): 0.25%
MTT assay reading, Average (H1299; H1299, 0.5 μM): 0.3934
MTT assay reading, individual replicate (H1299; H1299, 0.5 μM): 0.425 and 0.405 and 0.342 and 0.497 and 0.278 and 0.503 and 0.304
% control (H1299; H1299, 1 μM): 0.22%
MTT assay reading, Average (H1299; H1299, 1 μM): 0.3396
MTT assay reading, individual replicate (H1299; H1299, 1 μM): 0.29 and 0.384 and 0.395 and 0.301 and 0.289 and 0.346 and 0.372
% control (H460; H460, 0.01 μM): 0.11%
MTT assay reading, Average (H460; H460, 0.01 μM): 0.1897
MTT assay reading, individual replicate (H460; H460, 0.01 μM): 0.037 and 0.62 and 0.096 and 0.098 and 0.122 and 0.16 and 0.195
% control (H460; H460, 0.1 μM): 0.08%
MTT assay reading, Average (H460; H460, 0.1 μM): 0.1399
MTT assay reading, individual replicate (H460; H460, 0.1 μM): 0.139 and 0.105 and 0.129 and 0.16 and 0.133 and 0.147 and 0.166
% control (H460; H460, 0.5 μM): 0.16%
MTT assay reading, Average (H460; H460, 0.5 μM): 0.2786
MTT assay reading, individual replicate (H460; H460, 0.5 μM): 0.297 and 0.26 and 0.302 and 0.283 and 0.291 and 0.282 and 0.235
% control (H460; H460, 1 μM): 0.17%
MTT assay reading, Average (H460; H460, 1 μM): 0.2933
MTT assay reading, individual replicate (H460; H460, 1 μM): 0.276 and 0.322 and 0.282 and 0.298 and 0.311 and 0.29 and 0.274
% control (H358; H358, 0.01 μM): 69%
MTT assay reading, Average (H358; H358, 0.01 μM): 0.5804
MTT assay reading, individual replicate (H358; H358, 0.01 μM): 0.414 and 0.525 and 0.579 and 0.603 and 0.68 and 0.612 and 0.65
% control (H358; H358, 0.1 μM): 29%
MTT assay reading, Average (H358; H358, 0.1 μM): 0.2433
MTT assay reading, individual replicate (H358; H358, 0.1 μM): 0.196 and 0.173 and 0.287 and 0.284 and 0.293 and 0.247 and 0.223
% control (H358; H358, 0.5 μM): 34%
MTT assay reading, Average (H358; H358, 0.5 μM): 0.2884
MTT assay reading, individual replicate (H358; H358, 0.5 μM): 0.212 and 0.331 and 0.284 and 0.282 and 0.478 and 0.2 and 0.232
% control (H358; H358, 1 μM): 36%
MTT assay reading, Average (H358; H358, 1 μM): 0.3047
MTT assay reading, individual replicate (H358; H358, 1 μM): 0.283 and 0.248 (2×) and 0.306 and 0.3 and 0.343 and 0.405
MTT assay reading, Average (A549; A549, 0.01 μM): 0.2983
MTT assay reading, individual replicate (A549; A549, 0.01 μM): 0.286 and 0.219 and 0.272 and 0.298 and 0.36 and 0.344 and 0.309
MTT assay reading, Average (A549; A549, 0.1 μM): 0.6833
MTT assay reading, individual replicate (A549; A549, 0.1 μM): 0.693 and 0.467 and 0.636 and 0.687 and 0.753 and 0.796 and 0.751
MTT assay reading, Average (A549; A549, 0.5 μM): 0.5794
MTT assay reading, individual replicate (A549; A549, 0.5 μM): 0.542 and 0.837 and 0.514 and 0.534 and 0.588 and 0.579 and 0.462
MTT assay reading, Average (A549; A549, 1 μM): 0.6031
MTT assay reading, individual replicate (A549; A549, 1 μM): 0.783 and 0.583 and 0.67 and 0.758 and 0.515 and 0.477 and 0.436
% control (H322; H322, 0.01 μM): 97%
MTT assay reading, Average (H322; H322, 0.01 μM): 0.8434
MTT assay reading, individual replicate (H322; H322, 0.01 μM): 0.729 and 0.806 and 0.748 and 0.791 and 0.898 and 1.011 and 0.921
% control (H322; H322, 0.1 μM): 55%
MTT assay reading, Average (H322; H322, 0.1 μM): 0.4803
MTT assay reading, individual replicate (H322; H322, 0.1 μM): 0.322 and 0.412 and 0.406 and 0.52 and 0.585 and 0.58 and 0.537
% control (H322; H322, 0.5 μM): 43%
MTT assay reading, Average (H322; H322, 0.5 μM): 0.3787
MTT assay reading, individual replicate (H322; H322, 0.5 μM): 0.32 and 0.314 and 0.388 and 0.393 and 0.466 and 0.443 and 0.327
% control (H322; H322, 1 μM): 40%
MTT assay reading, Average (H322; H322, 1 μM): 0.3461
MTT assay reading, individual replicate (H322; H322, 1 μM): 0.271 and 0.348 and 0.409 and 0.352 and 0.361 and 0.324 and 0.358
inhibiting cell growth in NSCLC cells, ranking among the derivatives (NSCLC cells): most effective
% control (H596; H596, 0.01 μM): 6%
MTT assay reading, Average (H596; H596, 0.01 μM): 0.0931
MTT assay reading, individual replicate (H596; H596, 0.01 μM): 0.037 and 0.055 and 0.067 and 0.122 and 0.101 and 0.118
% control (H596; H596, 0.1 μM): 20%
MTT assay reading, Average (H596; H596, 0.1 μM): 0.3181
MTT assay reading, individual replicate (H596; H596, 0.1 μM): 0.287 and 0.3 and 0.326 and 0.366 and 0.289 and 0.321 and 0.338
% control (H596; H596, 0.5 μM): 23%
MTT assay reading, Average (H596; H596, 0.5 μM): 0.3653
MTT assay reading, individual replicate (H596; H596, 0.5 μM): 0.28 and 0.434 and 0.344 and 0.446 and 0.348 and 0.383 and 0.322
% control (H596; H596, 1 μM): 26%
MTT assay reading, Average (H596; H596, 1 μM): 0.405
MTT assay reading, individual replicate (H596; H596, 1 μM): 0.422 and 0.37 and 0.481 and 0.573 and 0.319 and 0.328 and 0.342
